The test system of one data set is BT-474. In words: cells. To be noted: Homo sapiens.
For another data set, the system named is HeLa. As to the kind of experiment: Antiproliferative activity against human HeLa cells. In kind it is functional, cell-based.
A further data set deals with NCI-N87. In words: Antiproliferative activity against human N87 cells overexpressing ErB2. The data set is classed as functional, cell-based.
The target of data set [1] is T1, Receptor tyrosine-protein kinase erbB-2 (Homo sapiens, UniProt P04626). In words: Inhibition of human ErB2 phosphorylation in human SKBR3 cells. In kind it is cell-based, SK-BR-3.
A further data set concerns SK-BR-3. In words: Antiproliferative activity against human SKBR3 cells overexpressing ErB2. In kind it is functional, cell-based.
For data set [2], the target named is T1, Receptor tyrosine-protein kinase erbB-2. As to the kind of experiment: Inhibition of human ErbB2.
The nature of data set [3]: Plasma concentration in Sprague-Dawley rat at 10 mg/kg, po administered in 10% solutol in D5W after 2 hrs. In kind it is ADME, organism-based. More on the design: dose 10 mg/kg, route oral.
A short description of data set [4]: Plasma concentration in Sprague-Dawley rat at 10 mg/kg, po administered in 10% solutol in D5W after 0.5 hrs. The data set is classed as ADME, organism-based. Details: dose 10 mg/kg, route oral.
Data set [5] concerns the target Epidermal growth factor receptor (Homo sapiens, UniProt P00533). As to the kind of experiment: Inhibition of human EGFR expressed in SF9 cells.
A short description of data set [6]: Plasma concentration in Sprague-Dawley rat at 10 mg/kg, po administered in 10% solutol in D5W after 1 hr. The data set is classed as ADME, organism-based. Details: dose 10 mg/kg, route oral.
Data set [7] in a line: Plasma concentration in Sprague-Dawley rat at 10 mg/kg, po administered in 10% solutol in D5W after 4 hrs. The data set is classed as ADME, organism-based. More on the design: dose 10 mg/kg, route oral.
Data set [8] in a line: Plasma concentration in Sprague-Dawley rat at 10 mg/kg, po administered in 0.5% hydroxypropyl methylcellulose after 2 hrs. More on the design: dose 10 mg/kg, route oral. The data set is classed as ADME, organism-based.
The nature of data set [9]: Plasma concentration in Sprague-Dawley rat at 10 mg/kg, po administered in 0.5% hydroxypropyl methylcellulose after 0.5 hrs. In kind it is ADME, organism-based. More on the design: dose 10 mg/kg, route oral.
The nature of data set [10]: Plasma concentration in Sprague-Dawley rat at 10 mg/kg, po administered in 0.5% hydroxypropyl methylcellulose after 1 hr. In kind it is ADME, organism-based. More on the design: dose 10 mg/kg, route oral.
For data set [11], the target named is RAF proto-oncogene serine/threonine-protein kinase (Homo sapiens) (UniProt P04049). As to the kind of experiment: Inhibition of c-Raf at 3 uM.
In data set [12] the target is Tyrosine-protein kinase Lck (Homo sapiens) (UniProt P06239). As to the kind of experiment: Inhibition of LCK at 3 uM.

pIC50: −log10 of the molar value. A value given as a limit tells only on which side of the number the result lay.

T1 sequence (P04626 whole entry): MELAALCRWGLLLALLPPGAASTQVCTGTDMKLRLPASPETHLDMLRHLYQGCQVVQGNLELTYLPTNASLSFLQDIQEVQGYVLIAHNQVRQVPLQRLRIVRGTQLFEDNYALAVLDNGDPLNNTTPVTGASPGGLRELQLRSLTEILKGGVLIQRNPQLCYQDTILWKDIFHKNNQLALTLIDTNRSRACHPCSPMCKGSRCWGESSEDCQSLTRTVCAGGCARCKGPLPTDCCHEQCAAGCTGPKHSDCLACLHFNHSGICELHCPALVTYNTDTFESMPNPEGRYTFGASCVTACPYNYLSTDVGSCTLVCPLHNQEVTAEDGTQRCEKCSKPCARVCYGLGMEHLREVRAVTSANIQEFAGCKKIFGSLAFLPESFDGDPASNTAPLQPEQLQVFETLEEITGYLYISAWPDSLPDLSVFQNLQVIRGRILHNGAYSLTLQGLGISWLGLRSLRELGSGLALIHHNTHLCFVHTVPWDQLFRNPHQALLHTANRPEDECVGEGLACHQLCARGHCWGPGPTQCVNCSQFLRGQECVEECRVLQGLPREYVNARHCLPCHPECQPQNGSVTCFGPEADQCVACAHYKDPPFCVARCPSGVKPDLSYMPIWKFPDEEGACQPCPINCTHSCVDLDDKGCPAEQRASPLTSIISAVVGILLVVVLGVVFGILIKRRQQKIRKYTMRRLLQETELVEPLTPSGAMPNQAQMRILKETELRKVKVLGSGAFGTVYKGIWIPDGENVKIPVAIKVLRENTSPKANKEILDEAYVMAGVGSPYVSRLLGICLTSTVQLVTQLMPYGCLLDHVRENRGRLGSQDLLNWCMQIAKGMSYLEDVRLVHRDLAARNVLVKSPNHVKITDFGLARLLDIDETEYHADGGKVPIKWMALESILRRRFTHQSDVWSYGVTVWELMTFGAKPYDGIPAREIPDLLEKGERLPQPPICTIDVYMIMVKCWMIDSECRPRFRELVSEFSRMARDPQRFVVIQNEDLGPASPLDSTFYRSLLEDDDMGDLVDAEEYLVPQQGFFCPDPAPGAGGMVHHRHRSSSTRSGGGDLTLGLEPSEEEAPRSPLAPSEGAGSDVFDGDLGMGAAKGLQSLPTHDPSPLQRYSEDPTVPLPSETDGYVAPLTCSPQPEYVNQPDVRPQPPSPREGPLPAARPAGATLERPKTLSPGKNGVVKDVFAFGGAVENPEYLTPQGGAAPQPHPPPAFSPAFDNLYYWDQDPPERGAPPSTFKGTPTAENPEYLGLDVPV
Epidermal growth factor receptor, sequence (P00533 whole entry): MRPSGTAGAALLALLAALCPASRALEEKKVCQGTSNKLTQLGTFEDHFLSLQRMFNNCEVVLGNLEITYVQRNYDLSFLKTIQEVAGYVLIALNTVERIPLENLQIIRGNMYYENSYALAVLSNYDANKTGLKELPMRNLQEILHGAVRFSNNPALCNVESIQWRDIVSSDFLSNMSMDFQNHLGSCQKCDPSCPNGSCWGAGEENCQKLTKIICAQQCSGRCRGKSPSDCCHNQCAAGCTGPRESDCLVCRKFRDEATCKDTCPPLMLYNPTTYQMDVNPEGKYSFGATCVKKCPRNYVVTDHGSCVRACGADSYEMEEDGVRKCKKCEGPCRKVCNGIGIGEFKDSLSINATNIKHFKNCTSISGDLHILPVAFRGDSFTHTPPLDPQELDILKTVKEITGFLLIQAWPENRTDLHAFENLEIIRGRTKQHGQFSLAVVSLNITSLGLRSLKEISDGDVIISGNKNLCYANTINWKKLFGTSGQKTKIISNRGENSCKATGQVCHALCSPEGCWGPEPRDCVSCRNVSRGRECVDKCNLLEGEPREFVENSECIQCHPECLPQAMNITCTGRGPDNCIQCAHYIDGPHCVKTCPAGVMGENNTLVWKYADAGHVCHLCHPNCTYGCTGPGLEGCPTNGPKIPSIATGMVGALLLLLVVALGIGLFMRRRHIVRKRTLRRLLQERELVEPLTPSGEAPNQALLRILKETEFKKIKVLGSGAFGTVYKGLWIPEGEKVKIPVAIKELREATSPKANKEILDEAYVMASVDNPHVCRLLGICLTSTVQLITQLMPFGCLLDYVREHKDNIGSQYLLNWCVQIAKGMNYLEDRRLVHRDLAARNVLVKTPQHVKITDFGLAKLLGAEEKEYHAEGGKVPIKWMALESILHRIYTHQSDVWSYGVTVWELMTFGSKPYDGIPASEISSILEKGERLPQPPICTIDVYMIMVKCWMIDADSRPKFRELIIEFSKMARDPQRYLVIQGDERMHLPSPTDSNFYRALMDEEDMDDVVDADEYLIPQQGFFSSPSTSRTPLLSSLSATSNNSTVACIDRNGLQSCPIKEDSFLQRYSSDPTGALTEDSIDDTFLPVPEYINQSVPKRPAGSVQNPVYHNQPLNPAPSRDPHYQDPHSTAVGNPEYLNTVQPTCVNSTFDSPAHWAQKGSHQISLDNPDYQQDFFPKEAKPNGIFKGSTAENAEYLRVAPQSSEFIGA
Tyrosine-protein kinase Lck (Homo sapiens), sequence (P06239 2-509 limits assumed): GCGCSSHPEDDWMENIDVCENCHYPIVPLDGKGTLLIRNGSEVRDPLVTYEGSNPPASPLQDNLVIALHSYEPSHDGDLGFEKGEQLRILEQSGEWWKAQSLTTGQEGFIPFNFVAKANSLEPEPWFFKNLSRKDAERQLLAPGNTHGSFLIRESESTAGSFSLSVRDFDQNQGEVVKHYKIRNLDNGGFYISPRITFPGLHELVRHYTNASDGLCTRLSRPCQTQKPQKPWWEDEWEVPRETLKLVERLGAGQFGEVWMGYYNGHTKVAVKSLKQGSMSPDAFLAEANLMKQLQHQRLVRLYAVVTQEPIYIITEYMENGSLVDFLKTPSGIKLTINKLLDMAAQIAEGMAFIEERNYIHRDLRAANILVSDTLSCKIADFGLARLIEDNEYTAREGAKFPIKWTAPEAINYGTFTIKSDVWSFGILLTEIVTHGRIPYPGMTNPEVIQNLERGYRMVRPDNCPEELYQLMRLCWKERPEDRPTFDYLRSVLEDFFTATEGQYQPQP
RAF proto-oncogene serine/threonine-protein kinase (Homo sapiens), sequence (P04049 whole entry): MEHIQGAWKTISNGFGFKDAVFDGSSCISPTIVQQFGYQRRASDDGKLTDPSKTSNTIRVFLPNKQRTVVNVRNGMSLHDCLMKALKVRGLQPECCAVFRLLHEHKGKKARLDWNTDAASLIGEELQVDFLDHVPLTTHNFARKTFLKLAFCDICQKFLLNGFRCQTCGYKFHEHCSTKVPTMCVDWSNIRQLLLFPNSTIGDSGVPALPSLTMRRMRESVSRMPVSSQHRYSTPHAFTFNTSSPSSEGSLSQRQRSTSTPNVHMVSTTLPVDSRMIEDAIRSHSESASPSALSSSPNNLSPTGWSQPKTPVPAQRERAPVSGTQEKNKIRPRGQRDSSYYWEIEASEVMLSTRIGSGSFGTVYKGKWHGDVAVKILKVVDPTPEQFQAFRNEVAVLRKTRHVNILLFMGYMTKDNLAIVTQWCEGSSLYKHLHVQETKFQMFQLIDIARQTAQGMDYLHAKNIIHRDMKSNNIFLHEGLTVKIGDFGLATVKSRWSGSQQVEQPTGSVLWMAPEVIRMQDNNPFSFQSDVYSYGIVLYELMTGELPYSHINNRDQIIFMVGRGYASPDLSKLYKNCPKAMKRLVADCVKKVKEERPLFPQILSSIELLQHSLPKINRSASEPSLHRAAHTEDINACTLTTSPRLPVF
Description for BT-474: Antiproliferative activity against human BT474 cells overexpressing ErB2

Turning to `CN(C)/N=C/c1c(N)ncnc1Nc1ccc2c(cnn2Cc2cccc(F)c2)c1`, the pIC50 in the data set on BT-474 was 7.20; in the data set with HeLa, under 4.00; with NCI-N87, 6.88; in data set [1], 6.98; with SK-BR-3, 6.83; in [2], 8.70. Also, the pIC50 in [5] is 8.10. This molecule also gave a concentration at 2 h in data set [3] of 13.2 ng/mL. The concentration at 0.5 h in data set [4] is 10.1 ng/mL. The molecule further displayed a concentration at 1 h in [6] of 6.3 ng/mL. Moreover, the concentration at 4 h in data set [7] was 4.6 ng/mL.

Turning to `COC[C@H]1CCCN1/N=C/c1c(N)ncnc1Nc1ccc2c(cnn2Cc2cccc(F)c2)c1`, the pIC50 is 7.14 in data set [2] and 7.51 in data set [5].

For the molecule `Nc1ncnc(Nc2ccc3c(cnn3Cc3cccc(F)c3)c2)c1/C=N/N1CCN(CCO)CC1`, the pIC50 in the data set on BT-474 is 7.85; with HeLa, under 4.00; with NCI-N87 it was 7.24; in data set [1], 7.27; in the data set on SK-BR-3 it was 7.24; in [2], 8.10. In addition, in [5], the pIC50 is 8.05.

`CN1CCN(/N=C/c2c(N)ncnc2Nc2ccc3c(cnn3Cc3cccc(F)c3)c2)CC1`: the pIC50 in data set [1] is 6.29; in data set [2], 8.10; in [5] it was 7.80.

In [8], `Nc1ncnc(Nc2ccc3c(cnn3Cc3cccc(F)c3)c2)c1/C=N/N1CCOCC1` registered a concentration at 2 h of 1.5 ng/mL. In addition, the pIC50 in the data set on BT-474 was 7.51; with HeLa, under 4.00; in the data set on NCI-N87 it was 7.04; in data set [1] it was 7.08; in the data set on SK-BR-3, 6.91; in [2] it was 8.15. Besides, in [5], the pIC50 was 7.80. This molecule also displayed a concentration at 0.5 h in data set [9] of 26.1 ng/mL. Moreover, in [10], the concentration at 1 h came to 21.6 ng/mL. The inhibition in [11] was determined as 47%; in data set [12] it was 71%.

`COc1ccc(/N=C/c2c(N)ncnc2Nc2ccc3c(cnn3Cc3cccc(F)c3)c2)cc1`: the pIC50 in [1] was 5.89; in [2], 6.93; in data set [5], 7.31.

On to `Nc1ncnc(Nc2ccc3c(cnn3Cc3cccc(F)c3)c2)c1/C=N/N1CCCCC1`, for which the concentration at 2 h in [8] turned out to be 32.4 ng/mL. Further, the pIC50 in the data set on BT-474 is 7.31; in the data set on HeLa, under 5.00; in the data set with NCI-N87, 6.44; in data set [1], 6.83; in the data set on SK-BR-3, 6.16; in [2], 7.74. The molecule also came in with a concentration at 0.5 h in data set [9] of 23.4 ng/mL. In addition, the concentration at 1 h in data set [10] stood at 12.6 ng/mL. Besides, the results for the inhibition in data set [11] and in [12] were 50% and 60%, respectively.

`CN/N=C/c1c(N)ncnc1Nc1ccc2c(cnn2Cc2cccc(F)c2)c1`: the results for the pIC50 in [1], in data set [2] and in data set [5] were 6.44, 7.08 and 7.92, respectively.

Take `Nc1ncnc(Nc2ccc3c(cnn3Cc3cccc(F)c3)c2)c1/C=N/NCC(F)(F)F`: the pIC50 in data set [1] is 6.59; in data set [2], 7.70; in [5], 7.28.

In the case of `COC[C@@H]1CCCN1/N=C/c1c(N)ncnc1Nc1ccc2c(cnn2Cc2cccc(F)c2)c1`, the pIC50 in [1] is 6.37; in [2], 7.41; in data set [5], 7.59.

Values taken from ChEMBL document CHEMBL1155952, “4-Amino-6-arylamino-pyrimidine-5-carbaldehyde hydrazones as potent ErbB-2/EGFR dual kinase inhibitors” (Bioorg Med Chem Lett, 2008).
